Experimental data taken from patent US20240041827A1, “COMPOSITIONS FOR THE TREATMENT OF FAT RELATED CONDITIONS AND DISORDERS” (priority 2020, published 2024).

What was measured:
[1] = system: human visceral preadipocytes; assay: in vitro; conditions: for Average RZL-012 and collagenase induced cell death (% vs untreated cells): RZL12 0 μM, 24 h of incubation
Experimental: Human visceral preadipocytes were seeded in 96-well white clear bottom plates at 10,000 cells per well in 100 μl pre-adipocyte medium and incubated overnight at 37° C. 5% CO2. On the following day, adipogenic differentiation was induced by addition of 100 μl/well differentiation medium and incubation continued for 5 days. Adipogenic differentiation was verified by microscopic evaluation, addition of adipored reagents and fluorescent measurement at Ex485 nm/Em572 nm. […] Staurosporine (1 μM) and 0.2% DMSO were used as controls. Plates were incubated at 37° C. 5% CO2 for 2, 6 and 24 hours. Following incubation, cytotoxicity was measured using Cell Titer Glo 2.0 (Promega).
Test Item RZL-12 (1-300 μM) was prepared on the day of the testing as 150 mM stock solutions in DMSO. The 150 mM represents a 500×stock of the highest desired tested concentration. The 150 mM stock solution was first serially diluted in DMSO to acquire 500×stock solutions for each of the RZL-012 concentrations. The 500×stock solutions were then diluted 1:25 in medium to acquire 20×intermediate stock solutions. Finally, the 20×intermediate stock solutions were further diluted 1:20 in the assay (on the plate) that included seeded cells.
The 600 μM represents a 20× stock of the highest desired tested concentration. […] Finally, the 20×intermediate stock solutions were further diluted 1:20 in the assay plate that included seeded cells.
Human visceral pre-adipocytes (HPrAD-vis): HPrAD-vis cells (Lonza cat #PT-5005) were thawed at 37° C. and transferred into 50 ml tubes containing pre-adipocytes PGM-2 growth medium (PBM-2, 10% FBS, 1-glutamine, GA-1000). Cells were centrifuged at 300 g for 10 minutes, the supernatant was removed (Leaving about 1 ml of wash medium for not disrupting the cells) and 2 ml fresh PGM-2 medium was added. After resuspension, cells were counted and seeded in T-75 and T25 flasks at a density of 9,000 cells/cm^2 ([…], 225,000 cells/T25 flask). Medium was changed every 2-3 days until reached confluence of 70%.
Cells were sub-cultured only once, as soon as they reached 70% confluence. For this purpose, the culture medium of each flask was removed and cells were washed once with 5 ml PBS. The flask was shaken to ensure that the entire surface was covered and the PBS was removed. Then, 3 ml/T75 flask or 1 ml/T25 flask of fresh dedicated Trypsin/EDTA solution (from Lonza) was added and the flasks were incubated for 3-4 minutes at RT until ˜90% cells were detached. The Trypsin/EDTA solution was then neutralized by addition of 6 ml/T75 flask or 3 ml/T25 flask of full PGM-2 growth medium. Cells were collected in 50 ml tubes and centrifuged 10 minutes at 300 g. The supernatant was removed and the cells were resuspended in 3 ml fresh medium. Cells were then counted using a haemacytometer slide after being diluted 1:2 in trypan blue (SIGMA). For sub-culturing, cells were seeded in new T75 flasks at a density of 9,000 cells/cm^2 containing 15 ml fresh growth medium. Alternatively, the cells were seeded in 96-well culture plates at a density of 10,000 cells/well for the cell treatments.
HPrAD-vis cells: HPrAD-vis passaged once were seeded in 96-well plates as described above (10000cells/well in 100 μl medium) and allowed to settle overnight at 37° C., 5% CO2. Following day, adipogenic differentiation was induced by addition of 100 μl/well differentiation medium and incubated for 5 days. Adipogenic differentiation was verified by microscopic evaluation, addition of adipored reagents and fluorescent measurement at Ex485 nm/Em572 nm. In the morning of day 6, test and reference items were prepared as described above. Cells' medium was replaced with 90 μl fresh differentiation medium. […] Staurosporine (1 μM) and 0.2% DMSO were used as controls. Plates were incubated at 37° C. 5% CO2 for 2, 6 and 24 hours. Following incubation, cell viability was determined using the CellTiter-Gg® viability reagent (Promega) with reading of plates for luminescence. […]

[2] = system: Wi-38 fibroblasts; assay: Cell Titer Glo 2.0 cytotoxicity assay on Wi-38 fibroblasts; type: cell-based; conditions: cytotoxic reference control; after 24 hours of incubation

Compound | Average RZL-012 and collagenase induced cell death (% vs untreated cells) ([1]; Collagenase 0.1 μM) [%] | Average RZL-012 and collagenase induced cell death (% vs untreated cells) ([1]; Collagenase 0.3 μM) [%] | Average RZL-012 and collagenase induced cell death (% vs untreated cells) ([1]; Collagenase 1 μM) [%] | Average RZL-012 and collagenase induced cell death (% vs untreated cells) ([1]; Collagenase 3 μM) [%] | Average RZL-012 and collagenase induced cell death (% vs untreated cells) ([1]; Collagenase 10 μM) [%] | Average RZL-012 and collagenase induced cell death (% vs untreated cells) ([1]; Collagenase 30 μM) [%] | concentrations at which the cytotoxic effect was observed ([1]; at all time points (2, 6, 24 h)) [nM] | effect of collagenase on RZL-012 cytotoxicity ([1]; collagenase 10 μM and 30 μM, 2 h time point) | effect of collagenase added together with RZL-012 on cell cytotoxicity ([1]; collagenase 0.1-1 μM, adipocytes, 6 h and 24 h time points, vs each compound alone) | maximal cell death ([1]; 24 h, 1 µM) [%] | maximal cell death [2] [%]
Collagenase | 7.28 | 6.53 | 25.57 | 33.27 | 65.68 | 79.93 | > 3000 | attenuated RZL-012 cytotoxicity | attenuate cell cytotoxicity | – | –
CN[C@@H]1C[C@H]2O[C@@](C)([C@@H]1OC)n1c3ccccc3c3c4c(c5c6ccccc6n2c5c31)C(=O)NC4 [staurosporine, reference compound] | – | – | – | – | – | – | – | – | – | 89 | 89
